The numbers were not newly measured in patent US20230086007A1, “USE OF DENATONIUM BENZOATE AS A SEED TREATMENT FOR CROPS AS BIRD AND/OR INSECT REPELLENT” (KWS SAAT SE & Co. KGaA, priority 2020, published 2023), which cites them from elsewhere.

Molecules are shown by their SMILES.

The subject of this series is maize. As to conditions: maize seed treatment; cited from earlier work.

Take `CN(C)C(=S)SSC(=S)N(C)C` [Thiram]: the “effect on early seedling vigour” value is given as “significant reduction in early seedling vigour”.
